Measured values from US6752986B2, “Composition and methods for affecting metallocorrinoid uptake” (The Cleveland Clinic Foundation, priority 2001, dated 2004).

Legend:
[1] = tested on: subcutaneous NIH-OVCAR-3 tumors; assay: Intraperitoneal NO-Cbl treatment of established subcutaneous NIH-OVCAR-3 tumors; assay type: in vivo, nude mice
[2] = tested on: NIH-OVCAR-3 ovarian carcinoma; assay: SRB anti-proliferative cell survival assay, NIH-OVCAR-3; assay type: cell-based, human; details: concentration used in the Annexin V assay for 48 hrs
[3] = tested on: five human hematological and eight solid tumor cell lines; details: cited from earlier work
WM9 human melanoma = assay: SRB anti-proliferative cell survival assay, WM9; assay type: cell-based; details: WM9 versus NIH-OVCAR-3
Protocol: WM9 human melanoma was evaluated after 4 days growth.
Cells (2×10^3) were seeded in 96-well plates. Data points represent mean of eight replicates. (n=8). A control plate was fixed 4 hr after seeding (to allow cells to attach) to determine the initial seeding density (Aini). This was defined as 0% growth. To the wells of the seeded experimental plate, IFN-β was added and incubation continued for 3-5 days. Untreated cell controls were included. Growth obtained with this control was defined as 100% (Afin). To determine cell number, cells were fixed with 10% trichloroacetic acid at 4° C. for 1 h. They were stained with 0.4% sulforhodamine B prepared in 1% acetic acid at 25° C. for 1 h (27). The wells were washed with 1% acetic acid. Bound dye was eluted with 100 μl of 10 mM Tris-HCl, ph 10.5 and quantitated in a microplate reader at 570 nm. Growth in IFN-β-treated wells (experimental=exp) was expressed as a percentage of untreated control growth (mean±SEM).
%Control growth=100%×(Aexp−Aini)/(Afin−Aini)
%STD=100%×(STDexp/(Afin−Aini))
%SEM=100%×(SEMexp/(Afin−Aini) ) where SEM=STD/✓n

P388D1 = details: P388D1, high levels of Cbl; cited from earlier work
CCRF-CEM = details: high levels of Cbl; cited from earlier work
NCTC929 = details: NCTC929, high levels of Cbl; cited from earlier work
L1210 = details: L1210, high levels of Cbl; cited from earlier work

Compound	mean volume of untreated tumors compared to NO-Cbl treated tumors ([1]; at the end of the study)	decrease in volume of treated tumors ([1]; during the treatment period)	tumor response ([1]; intraperitoneal NO-Cbl, established subcutaneous NIH-OVCAR-3 tumors)	ID25 [2]	ID50 lower in tumor cell lines compared to benign cells (fibroblasts and endothelial cells) [3]	ID50 of WM9 cells compared to NIH-OVCAR-3 (WM9 human melanoma)	cell proliferation (P388D1)	cell proliferation (CCRF-CEM)	cell proliferation (NCTC929)	cell proliferation (L1210)
Nitrosylcobalamin [NO-Cbl]	18 fold	4 fold	tumor regression	10 µM	5-100 fold	higher ID50				
C/C1=C2/[N-][C@H]([C@H](CC(N)=O)[C@@]2(C)CCC(=O)NC[C@@H](C)OP(=O)([O-])O[C@H]2[C@@H](O)[C@@H](n3cnc4cc(C)c(C)cc43)O[C@@H]2CO)[C@]2(C)N=C(/C(C)=C3N=C(/C=C4N=C1[C@@H](CCC(N)=O)C\4(C)C)[C@@H](CCC(N)=O)[C@]\3(C)CC(N)=O)[C@@H](CCC(N)=O)[C@]2(C)CC(N)=O.[Co] [Cbl, cobalamin]							inhibited	inhibited	inhibited	inhibited
